Experimental findings from US20060079537A1, “2-Substitutued triazolopyrimidines, methods and intermediate products for the production thereof, the use of the same controlling pathogenic fungi, and agents containing said compounds” (priority 2002, published 2006) are described below.

For this experiment, the system named is Alternaria solani. Nature of the experiment: Activity against early blight of tomato caused by Alternaria solani, protective application. The settings on record: 250 ppm active compound, sprayed to runoff one day before infection; visual rating after 5 days; untreated plants 100% infected. The class given is in vivo. How it is done:
The active compounds were formulated as a stock solution prepared using 0.25% by weight of active compound in acetone of DMSO. 1% by weight of the emulsifier Uniperol® EL (wetting agent having emulsifying and dispersant action based on ethoxylated alkylphenols) was added to this solution, and the solution was diluted with water to give the desired concentration.
Leaves of potted plants of the tomato cultivar: “Large Fruited St. Pierre” were sprayed to runoff point with an aqueous suspension having the concentration of active compound stated below. The next day, the leaves were infected with an aqueous spore suspension of Alternaria solani in a 2% biomalt solution having a density of 0.17×10^6 spores/ml. The plants were then placed in a water-vapor-saturated chamber at 20-22° C. After 5 days, the blight on the untreated but infected control plants had developed to such an extent that the infection could be determined visually in %.

The compound `CSc1nc2nc(C)c(-c3c(F)cc(F)cc3F)c(N3CCC(C)CC3)n2n1` [Example 3, 5-methyl-6-(2,4,6-trifluorophenyl)-7-(4-methylpiperidin-1-yl)-2-thiomethyl-[1,2,4]-triazolo[1,5-a]pyrimidine] displayed an infection of 20%.
